Tests used:
[1] = tested on: FICD (mem, H-FICD, L-FICD); assay: FICD in membrane, cytoplasmic and nuclear fractions of human OCPs, immunoblot; format: cell-based
Experimental: (a) Human CD14+ cells were cultured with M-CSF (20 ng/ml) for 8 hours to induce early signals and then DAPT (10uM) was added for 2 days. Protein expression of c-FMS, Na+K+ pump, Lamin B1 and α-tubulin, as determined by immunoblot. ME; membrane extracts, CE; cytoplasmic extracts, and NE; nuclear extracts. (b) Immunohistochemistry of DAPI and c-FMS [middle]. […] Scale: 200×. (c) Cells were starved for three hours and then stimulated with M-CSF for the indicated times. (d and e) Cells were treated with Imatinib (0.3 μM, d) or c-FMS blocking antibody (5 μg) prior to the addition of M-CSF. Protein expression of FICD was measured by immunoblot. Lamin B1 and α-tubulin were used as controls for nuclear and cytoplasmic fractions, respectively. (f) Human CD14+ cells were cultured with M-CSF (20 ng/ml) for 8 hours to induce early signals and then MDL 28170(5 uM). Immunoblot with anti c-FMS and Lamin B1 antibodies. (g and h) Calpain 1, 5, and 6 were knocked down with siRNAs. Cells were cultured with M-CSF for 12 hours. (g) Efficiency of knockdown of Calpain 1, 5, and 6. (h) Immunoblot of c-FMS and Lamin B1. All data are shown as mean±SEM. *,p<0.05 by two-tailed, unpaired t-test (g). Representative results from at least three independent experiments.
(A and B) Human CD14+ cells were cultured with M-CSF (20 ng/ml) for 8 hours to induce early signals and then (A) MDL 28170(0, 1, 2, 5 uM) or (B) PD150606 (0, 2, 5 uM) was added for 2 days. Immunoblot with anti c-FMS and α-tubulin antibodies in whole lysates(n=3). (C) Immunoblot of nuclear lysates with c-FMS and Lamin B1 antibodies. Cells were cultured with M-CSF for 12 hours, and then M-CSF was removed. Cells were subsequently treated with or without CaCl2 (10 mM) for an additional 24 hours. (D) Osteoclastogenesis assay. Human CD14+ cells were cultured with M-CSF, RANKL and MDL28170 for 4 days. […] Black scale bar is 100 μm. […] First two calpain cleavage sites in cytoplasmic domains of c-FMS were used for FICD constructs. (F) A schematic diagram of a FICD construct. Representative results from at least three independent experiments.
Whole cell extracts were prepared by lysis in buffer containing 1× Lamin sample buffer (Bio-rad) and 2-Mercaptoethanol (Sigma) or RIPA buffer (Sigma). The cell membrane-permeable protease inhibitor, Pefablock (1 mM), was added immediately prior to harvest cells. The membrane proteins were extracted with Mem-PER™ Plus Membrane Protein Extraction Kit (Thermorfisher scientific; 89842) according to manufacturer's instructions. To extracts of nucleus protein, cells were incubated in buffer A (10 mM Hepes, pH 7.9, 1.5 mM MgCl2, 10 mM KCl, 0.1 mM EDTA, 0.1 mM EGTA, proteinase inhibitor cocktail (Complete, Roche) and 1 mM DTT) for 15 min at 4° C. NP-40 was added to a final concentration of 0.5%. Nucleus was collected by centrifugation (5000 rpm, 5 min). The pellets were lysed by Bioruptor-ultrasonicator (UCD400, Diagenode) in buffer B (20 mM Hepes, pH 7.9, 0.4M NaCl, 10 mM KCl, 1 mM EDTA, 1 mM EGTA, 10% Glycerol, proteinase inhibitor cocktail and 1 mM DTT) and collected the supernatant by centrifugation (12,000 rpm, 10 min). The protein concentration of nuclear extracts was quantitated using the Bradford assay (Bio-Rad; 5000001). For immunoblot, proteins were separated on 7.5 or 10% SDS-PAGE gels, transferred to polyvinylidene difluoride membranes (PVDF, Millipore; ISEQ00010), and detected by antibodies as listed in the figure legends.

human CD14+ cells = assay: Human osteoclastogenesis assay (TRAP-positive multinuclear cells); format: cell-based; settings: M-CSF, RANKL and MDL28170 for 4 days
Experimental: FIGS. 10A-10F show calpain regulates FICD generation. (A and B) Human CD14+ cells were cultured with M-CSF (20 ng/ml) for 8 hours to induce early signals and then (A) MDL 28170(0, 1, 2, 5 uM) or (B) PD150606 (0, 2, 5 uM) was added for 2 days. Immunoblot with anti c-FMS and α-tubulin antibodies in whole lysates(n=3). (C) Immunoblot of nuclear lysates with c-FMS and Lamin B1 antibodies. Cells were cultured with M-CSF for 12 hours, and then M-CSF was removed. Cells were subsequently treated with or without CaCl2 (10 mM) for an additional 24 hours. (D) Osteoclastogenesis assay. Human CD14+ cells were cultured with M-CSF, RANKL and MDL28170 for 4 days. […] Black scale bar is 100 μm. (E) A table showing the calpain cleavage site in c-FMS predicted by GPS-CCD program. First two calpain cleavage sites in cytoplasmic domains of c-FMS were used for FICD constructs. (F) A schematic diagram of a FICD construct. Representative results from at least three independent experiments.
For human osteoclastogenesis assays, cells were added to 96 well plates in triplicate at a seeding density of 5×10^4 cells per well. Osteoclast precursors were incubated with 20 ng/ml of M-CSF and 40 ng/ml of human soluble RANKL up to 5 days in α-MEM supplemented with 10% FBS and 1% L-glutamine. […] Multinucleated (greater than 3 nuclei), TRAP-positive osteoclasts were counted in triplicate wells. […]

[2] = MDL 28170 5 uM after 8 hours M-CSF, nuclear extracts

Substance: MDL28170
- effect of calcium signaling on L-FICD processing ([1]; M-CSF removed, CaCl2 (10 mM) for 24 hours, nuclear lysates): reversed
- enrichment of L-FICD versus H-FICD in the nucleus [1, 2]: shifted the enrichment of L-FICD to H-FICD in the nucleus
- translocation of FICD into the nucleus [1, 2]: did not interfere
- osteoclast differentiation (human CD14+ cells): decreased
